“Also recorded” adds a separate entry of the source.

One experiment concerns zif268 mRNA expression. The experiment in a line: zif268 mRNA assay (Northern blot) in cultured dissociated hippocampal neurons. It is filed as cell-based. The note with it: added to induction medium. As to the method: The peak in zif268 expression after 30 min established the optimal delay for mRNA-based assays. Similar optimisation of protein-based immunohistochemical assays indicates an optimum 2 h post-exposure delay.
Zif268 mRNA assays were carried out as in Example 2, with cells exposed to ACSF control, to induction medium, or to induction medium with the addition of […] (an inhibitor of MAPK kinase) (FIG. 15) or with the addition of a mixture of the calcium channel blocker cadmium and the glutamate receptor antagonists AP5 and CNQX (FIG. 16).

Experiment [1] concerns neuronal zif268 expression. In words: zif268 immunocytochemical assay (zif268/NeuN double-labelled neurons) in dissociated hippocampal neuron culture. Particulars: added to induction medium, 0.2 μM each, 10 min exposure; listed as Carbachol. Type of experiment: cell-based, Sprague-Dawley rat. As to the method: Hippocampal neurons were prepared from late embryonic or 1st postnatal day Sprague-Dawley rates, and grown in dissociated cell culture in microtitre plates. After 7-21 days in vitro, serum-containing medium was replaced with serum-free medium for 24 h. This medium was then replaced with ACSF or with induction medium for 10 minutes; these solutions were then replaced with serum-free medium. After 1 hour, cells were fixed by replacement of serum-free medium with phosphate-buffered saline containing 4% paraformaldehyde. Immunolabelling was then carried out with rabbit antiserum against zif268 and mouse antibodies against the neuron-specific antigen NeuN. After washing, bound antibodies were visualised by incubation with Alexa488-labelled anti-rabbit IgG and Cy3-labelled anti-mouse IgG (FIG. 12 top).
An immunocytochemical assay was carried out as in Example 3, with cells exposed to ACSF, to induction medium, to induction medium with the addition of carbachol and isoproterenol (0.2 μM each) or to induction medium with the addition of carbachol only (0.2 μM).

As for `COc1cccc(-c2cc(=O)c3ccccc3o2)c1N` [PD98959], in the experiment with zif268 mRNA expression, the “effect on chemically-induced zif268 mRNA expression” value is “significantly reduced; also recorded: inhibits”.
Take `C[N+](C)(C)CCOC(N)=O` [carbachol]: the “effect on chemically induced increase in neuronal zif268 immunoreactivity” value in experiment [1] is listed as “no effect”.

The record behind these values is patent US20040076989A1, “Synaptic transmission assay” (priority 2000, published 2004).
